Publication PMC12598866, “A Comparative Study of Virucidal and Virustatic Multivalent Entry Inhibitors” (The Journal of Physical Chemistry. B, 2025)
Like-named read-outs stand apart in the source and are kept apart here.

How the values were obtained:
H3N2 [1] = assay: Influenza inhibition assay (ICC on MDCK cells, pretreatment); assay type: cell-based; conditions: Influenza A virus
[2] = Cytotoxicity assay for MDCK (MTT); assay type: cell-based; conditions: dog, MDCK cells
Experimental: MTT assay was used to evaluate the cytotoxicity on MDCK cells. 10^4 cells per well were seeded in a 96-well plate 1 day before the assay. A dose range of each drug (from 4.11 μM to 1000 μM) was added to the cells in serum-free medium for MDCK cells. The antivirals were incubated on the cells for 24 h at 37 °C. After incubation, the cells were washed, and MTT reagent (Promega) was added to the cells for 4 h at 37 °C according to the manufacturer’s instructions. The cells were then washed, and 50 μL of DMSO was added to free the reagent. Subsequently, the absorbance was read at 579 nm. Percentages of viability were calculated by comparing the absorbance in treated wells and untreated conditions.

BSA = biological target: T1, BSA (Bos taurus, UniProt P02769); assay: Isothermal titration calorimetry with BSA; assay type: binding, bovine; conditions: ITC
T1 construct: purchased Sigma-Aldrich

[3] = CMC assay (conductivity method); assay type: physicochemical; conditions: in water
Experimental: The CMC of antiviral compounds was measured by the conductivity method. Antiviral compounds were diluted into water at different concentrations, and the conductivity (μS/cm) was measured at each concentration with a conductivity meter (Mettler Toledo, Switzerland). The CMC was identified as the point on the conductivity-concentration plot where the slope changed.

HSV-2 [4] = assay: HSV-2 virucidal assay; assay type: cell-based, herpes simplex virus type 2; conditions: for inhibition mechanism against HSV-2 (in words): virucidal tests
H1N1 clinical = assay: Influenza inhibition assay (ICC on MDCK cells); assay type: cell-based; conditions: Influenza A virus, dose–response
HSV-2 [5] = assay: HSV-2 inhibition assay (plaque reduction on Vero cells, pretreatment); assay type: cell-based, herpes simplex virus type 2; conditions: Human alphaherpesvirus 2, Vero, pretreatment condition
[6] = Cytotoxicity assay on Vero cells (MTS); assay type: cell-based; conditions: African green monkey
Experimental: Cytotoxicity assay was performed on the Vero cell line with the MTS assay. The cells were plated for 24 h in DMEM medium containing 10% FBS and 1% penicillin/streptomycin with a seeding density of 2 × 10^4 per well in a 96-well plate. […] Then, the cells were washed with PBS twice, followed by the addition of 20 μL MTS reagents together with 80 μL DMEM medium. They were then incubated at 37 °C for 4 h. The cell viability was checked by absorbance at 490 nm with a plate reader.

[7] = Partition coefficient octanol/water (UV-vis); assay type: physicochemical
Experimental: UV–vis spectroscopy was employed first to determine the correct dilution of all compounds. The seven compounds in this study were B3C11SO4, B3C11SO3, B3C6SO3, B3C6SO4, C4C11SO4, C4C11SO3, and C4C3SO3. The protocol is the same for all the compounds: in the beginning, all compounds were dissolved in water at a concentration of 1 mg/mL. The solution was put into a quartz cuvette and then into the UV–vis spectrometer, where the absorbance from wavelengths 600 to 190 nm was investigated. All of the samples presented a peak in absorbance around 200 nm. The samples were diluted further until the absorbance peak reached values near 0.90.
A biphasic solution composed of 1.5 mL of a water solution of antiviral +1.5 mL of octanol was thoroughly mixed for 60 min. After the mixing, the two phases were separated by centrifugation for 1 min using a benchtop centrifuge at 5000 rpm. The water phase saturated in octanol and the octanol phase saturated with water were extracted and characterized by UV–vis spectrometry.
The partition coefficient (log P) was then calculated using formula : logP=log(Absorbanceofoctanolphase/Absorbanceofwaterphase) 1

H3N2 [8] = assay: microbe, parasite or virus in culture; assay type: cell-based; conditions: Influenza A virus, posttreatment condition, MDCK cells
HSV-1 = HSV-1 inhibition assay (plaque reduction on Vero cells); assay type: cell-based, herpes simplex virus type 1; conditions: Human alphaherpesvirus 1, dose–response
Experimental: The inhibitory effect of compounds on HSV-1 was evaluated by plaque reduction assay. Vero cells were plated 24 h before the experiment in 24-well plates at a density of 10^5 cells/well. Serial dilutions of compounds in DMEM medium (2% FBS, 1% P/S) were prepared, followed by the addition of aliquots of HSV-1 such that the final titer of the virus is […] (with MOI = 0.0005). Compounds/virus mixtures were incubated at 37 °C for 1 h and added to the cells (250 μL/well). Followed by incubation at 37 °C for 1 h, the viral inoculum was removed. The cells were overlaid with DMEM medium containing 1.2% methylcellulose, 2% FBS, and 1% P/S. After 3 days of incubation at 37 °C, 5% CO2, the cells were fixed and stained with 0.1% crystal violet in 20% ethanol, and plaques were counted. Each group of experiments in the inhibition assay was performed in triplicate. The concentration producing a 50% reduction in plaque formation was determined using the Prism 10 software (GraphPad Software, USA) by comparing compound-treated and untreated cells. Infectivity was calculated as the number of plaques in compound-treated cells/number of plaques in untreated cells × 100%.

[9] = biological target: glycoprotein D (gD) of HSV; assay: Isothermal titration calorimetry with glycoprotein D; assay type: binding; conditions: ITC, 25°C
Experimental: Isothermal titration calorimetry (ITC) experiments were conducted using ITC200 instruments (GE Healthcare, USA) equipped with a 200 μL sample cell and a 40 μL syringe. Thirteen injections were applied. The first data point was excluded. BSA protein and viral protein concentrations in the cell were approximately 50 μM and 1 mg/mL, respectively, and ligand concentrations in the syringe were roughly 2 mM. They were centrifuged at 2000g for 2 min to remove bubbles. The titration was performed at 25 or 37 °C, with data analyzed using MicroCal PEAQ ITC software. Baseline correction was applied, and Nitpic/Sedphat was used for automated integration to ensure precise binding parameter determination.

[10] = dose–response, read-out: IC50 H3N2
[11] = pretreatment condition, read-out: pretreatment IC50, H3N2
[12] = H2O, 25 °C (Table 5), read-out: K d (BSA)

T1 sequence (P02769 25-607): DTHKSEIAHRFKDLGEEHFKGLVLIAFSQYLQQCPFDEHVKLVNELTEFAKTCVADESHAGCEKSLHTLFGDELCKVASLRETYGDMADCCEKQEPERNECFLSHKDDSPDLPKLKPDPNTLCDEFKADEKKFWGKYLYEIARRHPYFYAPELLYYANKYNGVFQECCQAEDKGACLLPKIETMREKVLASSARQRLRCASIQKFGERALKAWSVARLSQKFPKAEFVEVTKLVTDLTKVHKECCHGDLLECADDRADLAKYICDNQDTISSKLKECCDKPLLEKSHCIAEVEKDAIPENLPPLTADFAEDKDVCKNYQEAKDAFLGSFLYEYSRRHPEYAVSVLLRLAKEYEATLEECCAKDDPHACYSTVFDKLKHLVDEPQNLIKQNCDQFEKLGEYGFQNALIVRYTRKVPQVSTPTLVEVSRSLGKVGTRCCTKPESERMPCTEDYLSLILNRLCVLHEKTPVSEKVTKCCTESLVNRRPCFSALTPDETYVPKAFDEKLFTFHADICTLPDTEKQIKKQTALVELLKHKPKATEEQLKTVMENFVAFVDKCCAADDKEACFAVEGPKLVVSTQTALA

| SMILES | IC50 (H3N2 [1]; [10]) [µM] | IC50 (H3N2 [1]; [11]) [µM] | CC50 at 24 h [2] [µM] | ΔG (BSA) (BSA; H2O, 25 °C (Table 5)) | ΔH (BSA) (BSA; H2O, 25 °C (Table 5)) | –ΔTS (BSA) (BSA; H2O, 25 °C (Table 5)) | Kd (BSA; [12]) [µM] | -∆TS (BSA) (BSA; PBS, 25 °C (Table S3)) [kcal/mol] | Kd (BSA; PBS, 25 °C (Table S3)) [µM] | N (BSA) (BSA; PBS, 25 °C (Table S3)) | ∆G (BSA) (BSA; PBS, 25 °C (Table S3)) [kcal/mol] | ∆H (BSA) (BSA; PBS, 25 °C (Table S3)) [kcal/mol] | CMC [3] [µM] | IC50 (H1N1 clinical) [µM] | IC50 (HSV-2 [5]) [µM] | CC50 at 48 h [6] [µM] | logP [7] | IC50 (H3N2 [8]) [µM] | IC50 (HSV-1) [µM] | Kd [9] [µM] | other results |
| --- | --- | --- | --- | --- | --- | --- | --- | --- | --- | --- | --- | --- | --- | --- | --- | --- | --- | --- | --- | --- | --- |
| O=S(=O)(O)CCCCCCCCCCCSCc1cc2c(cc1CSCCCCCCCCCCCS(=O)(=O)O)OCCOCCOc1cc(CSCCCCCCCCCCCS(=O)(=O)O)c(CSCCCCCCCCCCCS(=O)(=O)O)cc1OCCOCCO2 [C4C11SO3] | 6.4 ± 1.03 | 40.9 ± 1.19 | 202.3 ± 0.76 | –6.81 kcal/mol | –0.934 kcal/mol | –5.88 kcal/mol | 10.3 | -2.06 | 124 | 10 | -5.33 | -1.58 | 237 ± 17.1 | 10.4 ± 3.34 | 9.8 ± 1.5 | > 358 | -2.25 | 52.6 ± 0.5 | 118 ± 10.4 | 83.5 | N (binding sites, BSA) (BSA; H2O, 25 °C (Table 5)): 2.63; -∆TS (BSA) (BSA; PBS, 37 °C (Table S3)): -7.9 kcal/mol; Kd (BSA; PBS, 37 °C (Table S3)): 1.64 µM; N (BSA) (BSA; PBS, 37 °C (Table S3)): 2.6; ∆G (BSA) (BSA; PBS, 37 °C (Table S3)): -8.21 kcal/mol; ∆H (BSA) (BSA; PBS, 37 °C (Table S3)): -0.315 kcal/mol; Virucidal/Virustatic, HSV-2 (HSV-2 [4]; concentration 126.3 uM): Virucidal; Virucidal/Virustatic, HSV-2 (HSV-2 [4]; concentration 237.16 uM): Virucidal; Virucidal/Virustatic, HSV-2 (HSV-2 [4]; concentration 304 uM): Virucidal; inhibition mechanism against HSV-2 (in words) (HSV-2 [4]): virucidal |
| O=S(=O)(O)OCCCCCCCCCCCSCc1cc(CSCCCCCCCCCCCOS(=O)(=O)O)cc(CSCCCCCCCCCCCOS(=O)(=O)O)c1 [B3C11SO4] | 0.6 ± 0.12 | 0.6 ± 0.12 | 12.2 ± 0.94 | –7.71 kcal/mol | –5.4 kcal/mol | –2.31 kcal/mol | 2.23 | -9.86 | 3.8 | 3.21 | -7.46 | 2.46 | 556 ± 35.1 | 0.7 ± 0.04 | 43 ± 8.3 | 313 ± 28.7 | -2.2 | 8.6 | 43 ± 1.14 | 28.2 | -∆TS (BSA) (BSA; PBS, 37 °C (Table S3)): -9.8 kcal/mol; Kd (BSA; PBS, 37 °C (Table S3)): 1.37 µM; N (BSA) (BSA; PBS, 37 °C (Table S3)): 2.58; ∆G (BSA) (BSA; PBS, 37 °C (Table S3)): -8.32 kcal/mol; ∆H (BSA) (BSA; PBS, 37 °C (Table S3)): 1.48 kcal/mol; inhibition mechanism against HSV-2 (in words) (HSV-2 [4]): virucidal |
| O=S(=O)(O)CCCCCCCCCCCSCc1cc(CSCCCCCCCCCCCS(=O)(=O)O)cc(CSCCCCCCCCCCCS(=O)(=O)O)c1 [B3C11SO3] | 49.5 ± 8.7 | 49.5 ± 8.7 | > 415 | –7.15 kcal/mol | –9.08 kcal/mol | 1.93 kcal/mol | 5.82 |  |  |  |  |  | 497 ± 20.9 | 4.2 ± 0.36 | 88.5 ± 7.6 | > 546 | -2.43 | 24.8 ± 1.2 | 139 ± 4.6 | 23.2 | -∆TS (BSA) (BSA; H2O, 25 °C (Table S3)): 1.93 kcal/mol; N (BSA) (BSA; H2O, 25 °C (Table S3)): 1.1; ∆G (BSA) (BSA; H2O, 25 °C (Table S3)): -7.15 kcal/mol; ∆H (BSA) (BSA; H2O, 25 °C (Table S3)): -9.08 kcal/mol; -∆TS (BSA) (BSA; H2O, 37 °C (Table S3)): 0.272 kcal/mol; Kd (BSA; H2O, 37 °C (Table S3)): 4.97 µM; N (BSA) (BSA; H2O, 37 °C (Table S3)): 0.838; ∆G (BSA) (BSA; H2O, 37 °C (Table S3)): -7.53 kcal/mol; ∆H (BSA) (BSA; H2O, 37 °C (Table S3)): -9.78 kcal/mol; Virucidal/Virustatic, HSV-2 (HSV-2 [4]; concentration 300 uM): Virustatic; Virucidal/Virustatic, HSV-2 (HSV-2 [4]; concentration 500 uM): Virustatic; inhibition mechanism against HSV-2 (in words) (HSV-2 [4]): virustatic; Virucidal activity, HSV-2 (HSV-2 [4]; virucidal titration at 90–99% viral inhibition concentration, Vero cells): S |
| O=S(=O)(O)OCCCCCCCCCCCSCc1cc2c(cc1CSCCCCCCCCCCCOS(=O)(=O)O)OCCOCCOc1cc(CSCCCCCCCCCCCOS(=O)(=O)O)c(CSCCCCCCCCCCCOS(=O)(=O)O)cc1OCCOCCO2 [C4C11SO4] | 40.9 ± 1.19 | 6.4 ± 1.03 | > 194 | –6.07 kcal/mol | –2.73 kcal/mol | –3.34 kcal/mol | 35.7 | -3.6 | 161 | 10 | -5.18 | -1.58 | 1003 ± 24.6 | > 202 | 18.5 ± 5.2 | > 657 | -1.76 | 18.3 ± 0.75 | 22.5 ± 4.2 | 141 | N (binding sites, BSA) (BSA; H2O, 25 °C (Table 5)): 2.5; -∆TS (BSA) (BSA; PBS, 37 °C (Table S3)): -4.71 kcal/mol; Kd (BSA; PBS, 37 °C (Table S3)): 8.47 µM; N (BSA) (BSA; PBS, 37 °C (Table S3)): 7.6; ∆G (BSA) (BSA; PBS, 37 °C (Table S3)): -7.2 kcal/mol; ∆H (BSA) (BSA; PBS, 37 °C (Table S3)): -2.49 kcal/mol |
